Data taken from PubChem BioAssay AID220 (DTP/NCI, 2004).
Where “and” joins values, the source holds several entries; their conditions need not be identical. Equal entries are not always repeated. Results filed as inconclusive are left out.

Tested on: CD8F1 mice, subcutaneous mammary adenocarcinoma, T/C%
Test: NCI In Vivo Anticancer Drug Screen. Data for tumor model Mammary Adenocarcinoma CD8F1 (subcutaneous) in CD8F1
Details: higher = larger tumour
How it was run: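 Ratio of treated to vehicle-control outcome, based on either survival or tumor size, in mice bearing transplantable tumors given the test compound.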

[1] = endpoint: median tumor weight (est.), dose: 50.0 mg/kg/injection, schedule: Q07DX005 (ip), vehicle: saline with Tween-80
[2] = endpoint: median tumor weight (est.), dose: 100.0 mg/kg/injection, schedule: Q07DX005 (ip), vehicle: saline with Tween-80
[3] = endpoint: median tumor weight (est.), dose: 200.0 mg/kg/injection, schedule: Q07DX005 (ip), vehicle: saline with Tween-80
[4] = endpoint: median tumor weight (est.), dose: 400.0 mg/kg/injection, schedule: Q07DX005 (ip), vehicle: saline with Tween-80
[5] = endpoint: median tumor weight (est.), dose: 6.25 mg/kg/injection, schedule: Q07DX005 (ip), vehicle: saline
[6] = endpoint: median tumor weight (est.), dose: 25.0 mg/kg/injection, schedule: Q07DX005 (ip), vehicle: saline
[7] = endpoint: median tumor weight (est.), dose: 50.0 mg/kg/injection, schedule: Q07DX005 (ip), vehicle: saline
[8] = endpoint: median tumor weight (est.), dose: 100.0 mg/kg/injection, schedule: Q07DX005 (ip), vehicle: saline
[9] = endpoint: median tumor weight (est.), dose: 6.25 mg/kg/injection, schedule: Q07DX005 (ip), vehicle: Klucel (hydroxypropylcellulose) (HPC)
[10] = endpoint: median tumor weight (est.), dose: 50.0 mg/kg/injection, schedule: Q07DX005 (ip), vehicle: Klucel (hydroxypropylcellulose) (HPC)
[11] = endpoint: median tumor weight (est.), dose: 100.0 mg/kg/injection, schedule: Q07DX005 (ip), vehicle: Klucel (hydroxypropylcellulose) (HPC)
[12] = endpoint: median tumor weight (est.), dose: 2.0 mg/kg/injection, schedule: Q07DX005 (ip), vehicle: saline
[13] = endpoint: median tumor weight (est.), dose: 4.0 mg/kg/injection, schedule: Q07DX005 (ip), vehicle: saline

CC1=CC(C)(C)Nc2ccc(CSc3ccccc3)cc21
T/C (endpoint: median tumor weight change, dose: 50.0 mg/kg/injection, schedule: Q01DX001 (ip), vehicle: saline + Tween-80 + alcohol): 46 % of control | T/C (endpoint: median tumor weight change, dose: 62.0 mg/kg/injection, schedule: Q01DX001 (ip), vehicle: DMSO): 37 % of control | T/C (endpoint: median tumor weight change, dose: 100.0 mg/kg/injection, schedule: Q01DX001 (ip), vehicle: saline + Tween-80 + alcohol): 37 % of control | T/C (endpoint: median tumor weight change, dose: 125.0 mg/kg/injection, schedule: Q01DX001 (ip), vehicle: DMSO): 38 % of control | T/C (endpoint: median tumor weight change, dose: 200.0 mg/kg/injection, schedule: Q01DX001 (ip), vehicle: saline + Tween-80 + alcohol): 47 % of control | T/C (endpoint: median tumor weight change, dose: 250.0 mg/kg/injection, schedule: Q01DX001 (ip), vehicle: DMSO): 29 % of control | T/C (endpoint: median tumor weight change, dose: 400.0 mg/kg/injection, schedule: Q01DX001 (ip), vehicle: saline + Tween-80 + alcohol): 46 % of control | T/C (endpoint: median tumor weight change, dose: 800.0 mg/kg/injection, schedule: Q01DX001 (ip), vehicle: saline + Tween-80 + alcohol): 32 % of control | T/C (endpoint: median tumor weight change, dose: 2000.0 mg/kg/injection, schedule: Q01DX001 (ip), vehicle: DMSO): 61 % of control

CS(C)=O
T/C (endpoint: median tumor weight (est.), dose: 1.5 grams/kg/injection, schedule: Q07DX005 (ip), vehicle: saline): 106 % of control and 122 % of control

COc1ccc(OC)c(/C=C/c2ccnc3ccccc23)c1
T/C (endpoint: median tumor weight (est.), dose: 12.5 mg/kg/injection, schedule: Q07DX005 (ip), vehicle: saline with Tween-80): 77 % of control | T/C (endpoint: median tumor weight (est.), dose: 25.0 mg/kg/injection, schedule: Q07DX005 (ip), vehicle: saline with Tween-80): 93 % of control | T/C [1]: 78 % of control | T/C [2]: 67 % of control | T/C [3]: 86 % of control | T/C [4]: 71 % of control

C=C1C(C)C2C(Cc3ccccc3)NC(=O)C23C(OC(C)=O)C=CC(C)(O)C(=O)C(C)C/C=C/C3C1O (stereo not given)
T/C (endpoint: median tumor weight (est.), dose: 0.62 mg/kg/injection, schedule: Q07DX005 (ip), vehicle: saline): 64 % of control | T/C (endpoint: median tumor weight (est.), dose: 1.25 mg/kg/injection, schedule: Q07DX005 (ip), vehicle: saline): 61 % of control | T/C (endpoint: median tumor weight (est.), dose: 2.5 mg/kg/injection, schedule: Q07DX005 (ip), vehicle: saline): 94 % of control | T/C (endpoint: median tumor weight (est.), dose: 5.0 mg/kg/injection, schedule: Q07DX005 (ip), vehicle: saline): 59 % of control | T/C (endpoint: median tumor weight (est.), dose: 10.0 mg/kg/injection, schedule: Q07DX005 (ip), vehicle: saline): 46 % of control

O=[N+]([O-])c1ccc(Cl)c([N+](=O)[O-])c1
T/C (endpoint: median tumor weight (est.), dose: 15.0 mg/kg/injection, schedule: Q07DX005 (ip), vehicle: saline with Tween-80): 78 % of control | T/C (endpoint: median tumor weight (est.), dose: 120.0 mg/kg/injection, schedule: Q07DX005 (ip), vehicle: saline with Tween-80): 61 % of control and 83 % of control | T/C (endpoint: median tumor weight (est.), dose: 240.0 mg/kg/injection, schedule: Q07DX005 (ip), vehicle: saline with Tween-80): 65 % of control

O=c1[nH]c2c(ccc3cnccc32)c2c1CCC2
T/C [5]: 119 % of control | T/C (endpoint: median tumor weight (est.), dose: 12.5 mg/kg/injection, schedule: Q07DX005 (ip), vehicle: suspension in saline): 80 % of control | T/C [6]: 162 % of control | T/C (endpoint: median tumor weight (est.), dose: 25.0 mg/kg/injection, schedule: Q07DX005 (ip), vehicle: suspension in saline): 80 % of control | T/C [7]: 114 % of control | T/C (endpoint: median tumor weight (est.), dose: 50.0 mg/kg/injection, schedule: Q07DX005 (ip), vehicle: suspension in saline): 59 % of control | T/C [8]: 164 % of control | T/C (endpoint: median tumor weight (est.), dose: 100.0 mg/kg/injection, schedule: Q07DX005 (ip), vehicle: suspension in saline): 77 % of control

OCC1OC(n2cnc3c(=S)nc[nH]c32)C(O)C1O (stereo not given)
T/C [1]: 23 % of control | T/C [2]: 34 % of control | T/C [3]: 13 % of control and 37 % of control | T/C [4]: 8 % of control and 15 % of control | T/C (endpoint: median tumor weight change, dose: 25.0 mg/kg/injection, schedule: Q01DX001 (ip), vehicle: saline with Tween-80): 73 % of control | T/C (endpoint: median tumor weight change, dose: 50.0 mg/kg/injection, schedule: Q01DX001 (ip), vehicle: saline with Tween-80): 71 % of control | T/C (endpoint: median tumor weight change, dose: 100.0 mg/kg/injection, schedule: Q01DX001 (ip), vehicle: saline with Tween-80): 78 % of control | T/C (endpoint: median tumor weight change, dose: 125.0 mg/kg/injection, schedule: Q01DX001 (ip), vehicle: saline): 78 % of control | T/C (endpoint: median tumor weight change, dose: 200.0 mg/kg/injection, schedule: Q01DX001 (ip), vehicle: saline with Tween-80): 56 % of control | T/C (endpoint: median tumor weight change, dose: 250.0 mg/kg/injection, schedule: Q01DX001 (ip), vehicle: Klucel (hydroxypropylcellulose) (HPC)): 89 % of control | T/C (endpoint: median tumor weight change, dose: 250.0 mg/kg/injection, schedule: Q01DX001 (ip), vehicle: saline): 72 % of control | T/C (endpoint: median tumor weight change, dose: 400.0 mg/kg/injection, schedule: Q01DX001 (ip), vehicle: saline with Tween-80): 60 % of control | T/C (endpoint: median tumor weight change, dose: 500.0 mg/kg/injection, schedule: Q01DX001 (ip), vehicle: Klucel (hydroxypropylcellulose) (HPC)): 79 % of control | T/C (endpoint: median tumor weight change, dose: 500.0 mg/kg/injection, schedule: Q01DX001 (ip), vehicle: saline): 97 % of control | T/C (endpoint: median tumor weight change, dose: 1000.0 mg/kg/injection, schedule: Q01DX001 (ip), vehicle: Klucel (hydroxypropylcellulose) (HPC)): 52 % of control | T/C (endpoint: median tumor weight change, dose: 1000.0 mg/kg/injection, schedule: Q01DX001 (ip), vehicle: saline): 53 % of control | T/C (endpoint: median tumor weight change, dose: 2000.0 mg/kg/injection, schedule: Q01DX001 (ip), vehicle: Klucel (hydroxypropylcellulose) (HPC)): 26 % of control | T/C (endpoint: median tumor weight change, dose: 2000.0 mg/kg/injection, schedule: Q01DX001 (ip), vehicle: saline): 67 % of control

COc1cc2cc(c1Cl)N(C)C(=O)CC(OC(=O)C(C)C)C1(C)OC1C(C)C1CC(O)(NC(=O)O1)C(OC)/C=C/C=C(C)C2 (stereo not given)
T/C (endpoint: median tumor weight (est.), dose: 9.3 micrograms/kg/injection, schedule: Q07DX005 (ip), vehicle: saline + alcohol): 79 % of control | T/C (endpoint: median tumor weight (est.), dose: 18.7 micrograms/kg/injection, schedule: Q07DX005 (ip), vehicle: saline + alcohol): 103 % of control | T/C (endpoint: median tumor weight (est.), dose: 75.0 micrograms/kg/injection, schedule: Q07DX005 (ip), vehicle: saline + alcohol): 89 % of control | T/C (endpoint: median tumor weight (est.), dose: 150.0 micrograms/kg/injection, schedule: Q07DX005 (ip), vehicle: saline + alcohol): 45 % of control

O=C1C(=O)c2ccccc2C(O)=C1CC=C(Cl)Cl
T/C [9]: 112 % of control | T/C (endpoint: median tumor weight (est.), dose: 12.5 mg/kg/injection, schedule: Q07DX005 (ip), vehicle: Klucel (hydroxypropylcellulose) (HPC)): 52 % of control | T/C (endpoint: median tumor weight (est.), dose: 25.0 mg/kg/injection, schedule: Q07DX005 (ip), vehicle: Klucel (hydroxypropylcellulose) (HPC)): 99 % of control | T/C [10]: 93 % of control | T/C [11]: 61 % of control

COc1cc2c(cc1O)N=C[C@@H]1CCC(O)N1C2=O (mixture of isomers)
T/C [12]: 103 % of control | T/C [13]: 79 % of control | T/C (endpoint: median tumor weight (est.), dose: 8.0 mg/kg/injection, schedule: Q07DX005 (ip), vehicle: saline): 160 % of control

CC(=O)Nc1ccc(Nc2ccc(C(=C3C=CC(=[N+](C)CCC#N)C=C3)c3ccc(N(C)CCC#N)cc3)cc2)cc1
T/C (endpoint: median tumor weight change, dose: 125.0 mg/kg/injection, schedule: Q01DX001 (ip), vehicle: saline with Tween-80): 67 % of control

CCOC(OCC)C(=O)OCC(=O)[C@]1(O)Cc2c(O)c3c(c(O)c2[C@@H](OC2CC(N)C(O)C(C)O2)C1)C(=O)c1c(OC)cccc1C3=O (stereo not given in full)
T/C (endpoint: median tumor weight (est.), dose: 0.5 mg/kg/injection, schedule: Q07DX005 (ip), vehicle: water): 166 % of control | T/C (endpoint: median tumor weight (est.), dose: 1.0 mg/kg/injection, schedule: Q07DX005 (ip), vehicle: saline): 85 % of control | T/C (endpoint: median tumor weight (est.), dose: 1.0 mg/kg/injection, schedule: Q07DX005 (ip), vehicle: water): 50 % of control | T/C [12]: 47 % of control | T/C (endpoint: median tumor weight (est.), dose: 2.0 mg/kg/injection, schedule: Q07DX005 (ip), vehicle: water): 74 % of control | T/C [13]: 20 % of control | T/C (endpoint: median tumor weight (est.), dose: 4.0 mg/kg/injection, schedule: Q07DX005 (ip), vehicle: water): 24 % of control

CC1(C)CC(=O)C(CSC(=O)c2ccccc2)C(=O)C1
T/C [9]: 182 % of control | T/C [5]: 55 % of control | T/C (endpoint: median tumor weight (est.), dose: 12.5 mg/kg/injection, schedule: Q07DX005 (ip), vehicle: saline): 102 % of control | T/C [6]: 158 % of control | T/C [10]: 39 % of control | T/C [7]: 73 % of control | T/C [11]: 187 % of control | T/C [8]: 64 % of control | T/C (endpoint: median tumor weight (est.), dose: 200.0 mg/kg/injection, schedule: Q07DX005 (ip), vehicle: Klucel (hydroxypropylcellulose) (HPC)): 57 % of control

COC(=Nc1ccccc1)SSC(C)C
T/C [2]: 43 % of control and 46 % of control
